Measured values: publication PMC11195807, “Development of a multi-targeted chemotherapeutic approach based on G-quadruplex stabilisation and carbonic anhydrase inhibition” (Journal of Enzyme Inhibition and Medicinal Chemistry, 2024)

How the values were obtained:
Hairpin = assay: CD melting experiments, hairpin DNA duplex; details: 2 molar equiv compound, T1/2 of DNA alone 66.0 °C
Protocol: To evaluate the possible binding and stabilisation of double-stranded DNA, a 27-nt long hairpin-forming sequence (Hairpin) was employed.
In particular, the following DNA sequences were synthesised and employed for the experiments: d([sequence]) (c-Kit1), d([sequence]) (c-Myc), d([sequence]) (Tel23), and d([sequence]) (Hairpin). Oligonucleotides were dissolved in the proper buffer and their concentration was measured by UV absorption at 90 °C, as previously reported[80]^,[81]. To achieve the correct folding of the sequences, the DNA solutions were heated in a water bath at 90 °C for 5 min, and then allowed to cool slowly to room temperature overnight. Then, DNA samples were stored at 4 °C for 24 h, before data acquisition.
The samples were prepared by dissolving the oligonucleotides in 5 mM KH2PO4/K2HPO4 buffer (pH 7.0) containing 20 mM KCl (or LiCl in the case of c-Myc because of its high thermal stability). DNA concentrations of 20 µM for GQs and 30 µM for Hairpin were used. For each compound, a 10 mM stock solution in 100% DMSO was prepared. […] CD spectra were acquired at 20 and 100 °C, in the 230–320 nm wavelength range, averaged over three scans and subtracted of the buffer baseline. The scanning speed was set to 100 nm/min, with a 0.5 s response time, and 1 nm bandwidth. CD melting experiments were carried out in the 20–100 °C temperature range, with 1 °C/min heating rate, by following changes in the CD signal at the wavelengths of the maximum CD intensity (i.e. 263 nm for c-Kit1 and c-Myc, and 290 nm for Tel23). As for Hairpin, CD melting curves were recorded by following the changes in the CD signal at 252 nm (the wavelength of the minimum CD intensity). CD melting curves were normalised between 0 and 1. […] The ΔT1/2 values correspond to the difference in the T1/2 values of the nucleic acid structures in the presence and absence of the compounds. All experiments were performed in duplicate, and the reported values are the mean of the two measurements.

c-Myc = assay: CD melting experiments, c-Myc GQ; type: binding; details: for ΔT1/2 c-Myc: 1 molar equiv compound, T1/2 of DNA alone 70.0 °C; for ΔΔT1/2 c-Myc: ΔT1/2 of compound minus ΔT1/2 of berberine, 1 molar equiv
Excerpt: (§1) The 21 synthesised MTDLs were screened for their ability to bind to and stabilise DNA GQ-forming sequences, compared to berberine, by CD experiments. Indeed, circular dichroism has shown to be outstandingly useful and informative for noncanonical nucleic acid secondary structures. For this purpose, a G-rich 23-nucleotide truncation (23-nt) of the human telomeric sequence (Tel23) and two G-rich motifs from the promoter regions of c-KIT (c-Kit1) and c-MYC (c-Myc) oncogenes were employed. First, the overall topology adopted by each DNA sequence in K^+-containing buffer was verified by CD spectra. […] GQ conformation (Figure S1, Supporting Information). On the other hand, c-Kit1 and c-Myc sequences adopted a parallel GQ conformation, showing a distinctive positive band at around 260 nm and a negative one at ∼240 nm in their CD spectra (Figures S2 and S3, Supporting Information).
(§2) Afterwards, the GQ-stabilising properties of the molecules were assessed by CD melting experiments, measuring the differences in the apparent melting temperatures of the DNA in the presence and absence of compounds (ΔT1/2) (Figures S4–S6 and Table S2, Supporting Information). […] This could be explained by considering the higher accessibility of the external G-tetrads in the case of parallel GQs compared to the hybrid one[52], which would allow the additional CAI moiety of conjugated compounds to be better accommodated in the binding site. […] . […] .

hCA IX = target: T1, hCA IX (Homo sapiens, UniProt Q16790); assay: stopped-flow CO2 hydrase assay, hCA IX; type: biochemical; details: for Selectivity index (SI) I/IX: hCA IX over hCA I; for Selectivity index (SI) II/IX: hCA IX over hCA II; for Ki: mean ± SEM of three assays
T1 construct: made in house
Excerpt: (§3) An Applied Photophysics stopped-flow instrument has been used for assaying the CA-catalysed CO2 hydration activity, as reported earlier. […] All hCA isoforms were recombinant proteins, being obtained in-house as reported earlier.

hCA II = target: T2, hCA II (Homo sapiens, UniProt P00918); assay: stopped-flow CO2 hydrase assay, hCA II; type: biochemical
T2 construct: made in house
Excerpt: . The structure-activity relationship is discussed separately for the two compound subsets. Another code pattern is included for the MTDLs in Table 1, which indicates the derivative CAI type (sulphonamide, S or coumarin, C) and the number of atoms in the spacers connecting either berberine and the triazole (carbon atoms) or the triazole and the benzenesulfonamide/coumarin scaffolds (carbon or oxygen atoms).
(§4) An Applied Photophysics stopped-flow instrument has been used for assaying the CA-catalysed CO2 hydration activity, as reported earlier. The enzyme concentrations were in the range 5–12 nM. All hCA isoforms were recombinant proteins, being obtained in-house as reported earlier.

c-Kit1 = assay: CD melting experiments, c-Kit1 GQ; type: binding; details: for ΔT1/2 c-Kit1: 2 molar equiv compound, T1/2 of DNA alone 55.0 °C; for ΔΔT1/2 c-Kit1: ΔT1/2 of compound minus ΔT1/2 of berberine, 2 molar equiv
Excerpt: as §1, §2

hCA I = target: T3, hCA I (Homo sapiens, UniProt P00915); assay: stopped-flow CO2 hydrase assay, hCA I; type: biochemical
T3 construct: made in house
Protocol: as §4

hCA XII = target: T4, hCA XII (Homo sapiens, UniProt O43570); assay: stopped-flow CO2 hydrase assay, hCA XII; type: biochemical; details: for Selectivity index (SI) I/XII: hCA XII over hCA I; for Selectivity index (SI) II/XII: hCA XII over hCA II; for Ki: mean ± SEM of three assays
T4 construct: made in house
Excerpt: as §3

Tel23 = assay: CD melting experiments, Tel23 GQ; type: binding, human; details: for ΔT1/2 Tel23: 2 molar equiv compound, T1/2 of DNA alone 53.5 °C; for ΔΔT1/2 Tel23: ΔT1/2 of compound minus ΔT1/2 of berberine, 2 molar equiv
Excerpt: as §1, §2

[1] = sulphonamides, inhibitor-enzyme incubation 15 min
[2] = sulphonamides, inhibitor-enzyme incubation 15 min, mean ± SEM of three assays
[3] = coumarins, inhibitor-enzyme incubation 6 h

T3 sequence (P00915 whole entry): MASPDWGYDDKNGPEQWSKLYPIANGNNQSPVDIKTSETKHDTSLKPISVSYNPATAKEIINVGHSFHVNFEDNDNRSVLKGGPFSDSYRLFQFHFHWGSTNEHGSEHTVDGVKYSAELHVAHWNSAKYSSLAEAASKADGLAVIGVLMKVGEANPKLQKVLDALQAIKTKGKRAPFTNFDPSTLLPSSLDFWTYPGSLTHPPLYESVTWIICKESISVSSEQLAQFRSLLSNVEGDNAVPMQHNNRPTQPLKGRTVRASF
T4 sequence (O43570 25-354): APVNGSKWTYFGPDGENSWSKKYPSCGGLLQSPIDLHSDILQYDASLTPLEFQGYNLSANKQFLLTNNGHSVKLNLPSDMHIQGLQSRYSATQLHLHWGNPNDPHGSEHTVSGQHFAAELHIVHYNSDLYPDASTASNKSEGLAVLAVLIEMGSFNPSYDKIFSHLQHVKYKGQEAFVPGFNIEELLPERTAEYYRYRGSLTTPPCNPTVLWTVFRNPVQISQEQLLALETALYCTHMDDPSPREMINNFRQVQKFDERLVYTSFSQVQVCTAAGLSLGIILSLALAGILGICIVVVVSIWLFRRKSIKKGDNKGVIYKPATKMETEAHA

SMILES | ΔT1/2 Hairpin (Hairpin) | ΔT1/2 c-Myc (c-Myc) [°C] | ΔΔT1/2 c-Myc (c-Myc) [°C] | Selectivity index (SI) I/IX (hCA IX) | Selectivity index (SI) II/IX (hCA IX) | Ki (hCA IX; [1]) [µM] | Ki (hCA II; [2]) [µM] | ΔT1/2 c-Kit1 (c-Kit1) [°C] | ΔΔT1/2 c-Kit1 (c-Kit1) [°C] | Ki (hCA I; [2]) [µM] | Selectivity index (SI) I/XII (hCA XII) | Selectivity index (SI) II/XII (hCA XII) | Ki (hCA XII; [1]) [µM] | ΔT1/2 Tel23 (Tel23) [°C] | ΔΔT1/2 Tel23 (Tel23) [°C] | Ki (hCA IX; [3]) [µM] | Ki (hCA II; [3]) [µM] | Ki (hCA I; [3]) [µM] | Ki (hCA XII; [3]) [µM] | ΔΔT1/2 c-Myc (c-Myc; listed as C-1,6) [°C]
COc1ccc2cc3[n+](cc2c1OCc1cn(-c2ccc(S(N)(=O)=O)cc2)nn1)CCc1cc2c(cc1-3)OCO2 [Compound 41, 10-Methoxy-9-((1–(4-sulfamoylphenyl)-1H-1,2,3-triazol-4-yl)methoxy)-5,6-dihydro-[1,3]dioxolo[4,5-g]isoquinolino[3,2-a]isoquinolin-7-ium hexafluorophosphate] | +2.5 °C | 14.5 | 2.5 | 307.1 | 8.5 | 0.0027 ± 0.0002 | 0.0229 ± 0.0014 | 15.0 | 2.0 | 0.829 ± 0.0503 | 135.9 | 3.8 | 0.0061 ± 0.0003 | 5.5 | −4.0 |  |  |  |  | 
COc1ccc2cc3[n+](cc2c1OCc1cn(CCCOc2ccc4ccc(=O)oc4c2)nn1)CCc1cc2c(cc1-3)OCO2 [Compound 42, 10-Methoxy-9-((1–(3-((2-oxo-2H-chromen-7-yl)oxy)propyl)-1H-1,2,3-triazol-4-yl)methoxy)-5,6-dihydro-[1,3]dioxolo[4,5-g]isoquinolino[3,2-a]isoquinolin-7-ium hexafluorophosphate] | +0.5 °C | 16.0 | 4.0 | > 284.9 | > 284.9 |  |  | 17.0 | 4.0 |  | > 980.4 | > 980.4 |  | 10.5 | 1.0 | 0.0351 ± 0.0028 | > 100 | > 100 | 0.0102 ± 0.0008 | 
COc1ccc2cc3[n+](cc2c1OCc1cn(CCCCOc2ccc4ccc(=O)oc4c2)nn1)CCc1cc2c(cc1-3)OCO2 [Compound 43, 10-Methoxy-9-((1–(4-((2-oxo-2H-chromen-7-yl)oxy)butyl)-1H-1,2,3-triazol-4-yl)methoxy)-5,6-dihydro-[1,3]dioxolo[4,5-g]isoquinolino[3,2-a]isoquinolin-7-ium hexafluorophosphate] | -0.5 °C | 14.0 | 2.0 | > 392.2 | > 392.2 |  |  | 16.5 | 3.5 |  | > 2381 | > 2381 |  | 7.0 | −2.5 | 0.0255 ± 0.0015 | > 100 | > 100 | 0.0042 ± 0.0003 | 
COc1ccc2cc3[n+](cc2c1OCc1cn(CCCCCOc2ccc4ccc(=O)oc4c2)nn1)CCc1cc2c(cc1-3)OCO2 [Compound 44, 10-Methoxy-9-((1–(5-((2-oxo-2H-chromen-7-yl)oxy)pentyl)-1H-1,2,3-triazol-4-yl)methoxy)-5,6-dihydro-[1,3]dioxolo[4,5-g]isoquinolino[3,2-a]isoquinolin-7-ium hexafluorophosphate] | +1.0 °C |  | >13.0 | > 1041 | > 1041 |  |  | 17.5 | 4.5 |  | > 689.7 | > 689.7 |  | 7.5 | −2.0 | 0.0096 ± 0.0005 | > 100 | > 100 | 0.0145 ± 0.0009 | > 13.0
